Like-named read-outs stand apart in the source and are kept apart here.
Key:
SK-MEL-25 = experiment: Melanoma cytotoxicity assay (resazurin); type: cell-based; conditions: SK-MEL-25 melanoma cells, 24 hours with compound, resazurin; concentration not given
Procedure, shortened: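 Growth inhibition was scored by resazurin reduction over 6 h, read by fluorescence, after cells had been treated with serially diluted compounds for 24 h. Background from medium-only wells was subtracted and signal expressed relative to DMSO controls.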

NCI-H522 (NSCLC) = experiment: NCI 60 one dose screen; type: cell-based, human; conditions: Non-small Cell Lung Cancer
SF-295 = experiment: NCI 60 one dose screen; type: cell-based, human; conditions: one dose; CNS Cancer; SF-295
[1] = test system: 60 different human tumor cell lines; conditions: for GI50 / TGI: five dose
[2] = A549/ATCC (Non-small Cell Lung Cancer)
[3] = HOP-62 (Non-small Cell Lung Cancer)
[4] = HOP-92 (Non-small Cell Lung Cancer)
[5] = MDA-MB-231/ATCC (Breast Cancer)
[6] = NCI-H23 (Non-small Cell Lung Cancer)
[7] = NCI-H322M (Non-small Cell Lung Cancer)
[8] = NCI-H460 (Non-small Cell Lung Cancer)
[9] = NCI-H522 (Non-small Cell Lung Cancer)

(1S,2R,13R,14S,18S)-7-(2,4-dimethylanilino)-2,18-dimethyl-6-thia-8-azapentacyclo[11.7.0.02,10.05,9.014,18]icosa-5(9),7,10-trien-17-one [IIa.14]
SK-MEL-25 (% inhibition) (SK-MEL-25): 15%
Growth Percent (NCI-H522 (NSCLC)): 24.64%
Growth Percent (SF-295): 63.77%
CC50 [1]: > 100 µM
GI50 ([1]; 786-0 (Renal Cancer)): 1.62 µM
TGI ([1]; 786-0 (Renal Cancer)): 3.07E−6
GI50 ([1]; A498 (Renal Cancer)): 2.54 µM
GI50 [1, 2]: 3.5 µM
TGI [1, 2]: >1.00E−4
GI50 ([1]; ACHN (Renal Cancer)): 2.08 µM
TGI ([1]; ACHN (Renal Cancer)): 4.53E−6
GI50 ([1]; BT-549 (Breast Cancer)): 1.49 µM
TGI ([1]; BT-549 (Breast Cancer)): 2.94E−6
GI50 ([1]; CAKI-1 (Renal Cancer)): 2.83 µM
TGI ([1]; CAKI-1 (Renal Cancer)): >1.00E−4
GI50 ([1]; CCRF-CEM (Leukemia)): 2.45 µM
TGI ([1]; CCRF-CEM (Leukemia)): >1.00E−4
GI50 ([1]; COLO 205 (Colon Cancer)): 2.5 µM
TGI ([1]; COLO 205 (Colon Cancer)): 6.54E−6
GI50 ([1]; DU-145 (Prostate Cancer)): 2.04 µM
TGI ([1]; DU-145 (Prostate Cancer)): 5.18E−6
GI50 ([1]; EKVX (Non-small Cell Lung Cancer)): 2.13 µM
GI50 ([1]; HCC-2998 (Colon Cancer)): 1.9 µM
TGI ([1]; HCC-2998 (Colon Cancer)): 3.74E−6
GI50 ([1]; HCT-15 (Colon Cancer)): 2.68 µM
GI50 ([1]; HCT-116 (Colon Cancer)): 1.49 µM
TGI ([1]; HCT-116 (Colon Cancer)): 2.85E−6
GI50 ([1]; HL-60(TB) (Leukemia)): 2.47 µM
TGI ([1]; HL-60(TB) (Leukemia)): 6.03E−6
GI50 [1, 3]: 2.43 µM
TGI [1, 3]: 6.92E−6
GI50 [1, 4]: 1.72 µM
TGI [1, 4]: 3.86E−6
GI50 ([1]; HS 578T (Breast Cancer)): 3.75 µM
TGI ([1]; HS 578T (Breast Cancer)): >1.00E−4
GI50 ([1]; HT29 (Colon Cancer)): 2.55 µM
TGI ([1]; HT29 (Colon Cancer)): 7.04E−6
GI50 ([1]; IGROV1 (Ovarian Cancer)): 2.11 µM
TGI ([1]; IGROV1 (Ovarian Cancer)): 5.14E−6
GI50 ([1]; K-562 (Leukemia)): 2.86 µM
TGI ([1]; K-562 (Leukemia)): >1.00E−4
GI50 ([1]; KM12 (Colon Cancer)): 2.78 µM
GI50 ([1]; LOX IMVI (Melanoma)): 1.64 µM
TGI ([1]; LOX IMVI (Melanoma)): 3.13E−6
GI50 ([1]; M14 (Melanoma)): 1.85 µM
TGI ([1]; M14 (Melanoma)): 3.79E−6
GI50 ([1]; MALME-3M (Melanoma)): 1.99 µM
TGI ([1]; MALME-3M (Melanoma)): 5.55E−6
GI50 ([1]; MCF7 (Breast Cancer)): 2.31 µM
TGI ([1]; MCF7 (Breast Cancer)): >1.00E−4
GI50 [1, 5]: 2.33 µM
TGI [1, 5]: 7.92E−6
GI50 ([1]; MDA-MB-435 (Melanoma)): 3.02 µM
TGI ([1]; MDA-MB-435 (Melanoma)): >1.00E−4
GI50 ([1]; MDA-MB-468 (Breast Cancer)): 1.93 µM
TGI ([1]; MDA-MB-468 (Breast Cancer)): 3.93E−6
GI50 ([1]; MOLT-4 (Leukemia)): 2.49 µM
TGI ([1]; MOLT-4 (Leukemia)): >1.00E−4
GI50 [1, 6]: 2.01 µM
TGI [1, 6]: 4.85E−6
GI50 ([1]; NCI-H226 (Non-small Cell Lung Cancer)): 2.35 µM
GI50 [1, 7]: 4.28 µM
TGI [1, 7]: >1.00E−4
GI50 [1, 8]: 2.7 µM
TGI [1, 8]: 8.39E−6
GI50 [1, 9]: 1.68 µM
TGI [1, 9]: 3.28E−6
GI50 ([1]; NCI/ADR-RES (Ovarian Cancer)): 2.9 µM
TGI ([1]; NCI/ADR-RES (Ovarian Cancer)): >1.00E−4
GI50 ([1]; OVCAR-3 (Ovarian Cancer)): 2.18 µM
TGI ([1]; OVCAR-3 (Ovarian Cancer)): 5.03E−6
GI50 ([1]; OVCAR-4 (Ovarian Cancer)): 2.83 µM
TGI ([1]; OVCAR-4 (Ovarian Cancer)): >1.00E−4
GI50 ([1]; OVCAR-5 (Ovarian Cancer)): 2.9 µM
TGI ([1]; OVCAR-5 (Ovarian Cancer)): >1.00E−4
GI50 ([1]; OVCAR-8 (Ovarian Cancer)): 2.63 µM
TGI ([1]; OVCAR-8 (Ovarian Cancer)): 7.26E−6
GI50 ([1]; PC-3 (Prostate Cancer)): 1.86 µM
TGI ([1]; PC-3 (Prostate Cancer)): 4.53E−6
GI50 ([1]; RXF 393 (Renal Cancer)): 1.74 µM
TGI ([1]; RXF 393 (Renal Cancer)): 3.23E−6
